“Also recorded” adds a separate entry of the source.
Experiments:
[1] = Maximum tolerable dose and body weight of mice given metabolite intraperitoneally; assay type: in vivo; details: 83 mg/kg body weight, given every 48 hours, intraperitoneal
[2] = system: GSDMD-mediated anti-tumour immunity; test: Orthotopic M3-9-M^OVA RMS in WT vs GSDMD-KO mice; assay type: in vivo, mouse
Description: It was hypothesized that the HPP metabolite enhances cancer immunity by targeting a critical signalling protein involved in the NF-κB pathway. […] Through nonparametric analysis of the response curves (NPARC) (Mol. Cell. Proteomics 18, (2019)), 647 potential protein targets of 3,2-HPP metabolite were identified (FIG. 10b). To narrow down the investigation, GSDMD was focused on (FIG. 10c, d), which is a cell membrane pore-forming protein that plays a critical role in inflammasome pathway, IL-1β release and tumour immunity (Cell Rep. 34, (2021); Cell Res. 25, 1285-98 (2015); J. Immunother. Cancer 10, (2022); Cell Rep. 41, (2022); Int. Immunopharmacol. 74, (2019); J. Dig. Dis. 19, (2018); Int. J. Biol. Sci. 17, (2021); Nat. Commun. 13, 1-20 (2022); BMC Cancer 20, (2020); Oncogene 41, 5092-5106 (2022)). A correlation between the expression of inflammasome genes, GSDMD and NF-κB1 in tumour infiltrated immune cells was observed (FIG. 11). Whether 3,2-HPP targets GSDMD-mediated anti-tumour immunity was validated by orthotopically implanting M3-9-M^OVA RMS into the gastrocnemius muscle of male C57BL/6NJ (WT) and C57BL/6N-Gsdmdem4Fcw/J (KO) mice (FIG. 10e).

NF-κB pathway = test: NF-κB activity reporter assay in THP1-Dual cells; assay type: cell-based, human
Description: NF-κB and IRF induction assays were performed using mouse RAW-Dual™ (InvivoGen) and human THP1-Dua™ (InvivoGen) reporter cell lines. The cells were resuspended in freshly prepared test media at a concentration of 1.0×10^6 cells/mL for RAW-Dual™ and 5.0×10^5 cells/mL for THP1-Dual™. 180 μL of cells were seeded per well in a standard 96-well plate and optimized the concentration of several PRR agonists that trigger NF-κB and IRF. To test the metabolite effect on these pathways, 10 μL of the optimized receptor agonist, 10 μL of the 2 mM metabolite solution or vehicle was added to each well, making a final volume of 200 μL. To neutralize IL-1 receptor signalling, anti-IL-1a (clone 7D4, InvivoGen) and anti-IL-1β (clone 4H5, InvivoGen) antibodies were added and IgG1 isotype (clone T8E5, InvivoGen) was used as a control, as per manufacturer's recommendation. NF-κB activity was determined by measuring secreted embryonic alkaline phosphatase (SEAP) levels using QUANTI-Blue™ solution (InvivoGen). After aliquoting 20 μL of cell culture supernatant into 180 μL of QUANTI-Blue™, the conversion of color to blue was monitored and SEAP levels were determined using a SpectraMax i3 from Molecular Devices at 650 nm. To assess IRF induction, secreted lucia luciferase levels were measured in the culture medium using QUANTI-Luc™ solution (InvivoGen). 20 μL of cell culture supernatant was aliquoted into 50 μL of QUANTI-Luc™ solution and the luminescence reading was immediately recorded using the SpectraMax i3.

B16.F10 melanoma tumours = test: Subcutaneous B16.F10 melanoma in IMDM-CR mice: overall survival; assay type: in vivo, mouse
M3-9-M^OVA tumours = test: Orthotopic M3-9-M^OVA rhabdomyosarcoma in IMDM-CR mice: immune surveillance, overall survival; assay type: in vivo, mouse
OVA-specific CD8 T cells = test: Flow cytometry of OVA-specific CD8 T cells within M3-9-M^OVA tumours; assay type: in vivo, mouse; details: male IMDM-CR mice, 18 days after implantation
Description: Tumours were isolated from mice and single cell suspensions were made using a mouse tumour dissociation kit following the manufacturer's instructions (Miltenyi Biotec). The isolated tumours were minced into pieces ~2-4 mm in diameter using a sterile scalpel, homogenized the tumour samples in RPMI 1640 media and enzyme mix for 1 minute, and incubated the homogenates for 40 minutes with continuous gentle shaking at 37° C. The homogenates were then filtered through a 70 μm cell strainer followed by centrifuging the single cell suspensions. The red blood cells (RBC) were removed using RBC lysis buffer. A Percoll gradient based leukocyte separation was performed followed by live and dead cell staining using Zombie Aqua dye (BioLegend). Cell surface markers were stained using ant-CD4-FITC (clone RM4-4, BioLegend), anti-CD8-PE.Cy7 (clone 53-6.7, BioLegend), anti-CD3-BV421 (clone 145-2C11, BioLegend), anti-CD45-APC.Cy7 (clone 30-F11, BioLegend), anti-PD-1-FITC (clone 29F.1A12, BioLegend), anti-TIM3-PE (clone RMT3-23, BioLegend) and anti-LAG3-PerCP/Cy5.5 (clone C9B7W, BioLegend) for T lymphocytes. For OVA-specific CD8 T cell detection, H-2K(b) chicken ova 257-264 human B2M SIINFEKL Alexa 647-labeled tetramer was used. The cells were washed after staining with FACS buffer and quantified using the Attune NxT Flow Cytometer (Thermo Fisher Scientific).

[3] = system: GSDMD regulated cytokines; test: Cytokine level of tumour interstitial fluid of M3-9-M^OVA tumours; assay type: in vivo, mouse
Description: Cells were seeded in a 96-well plate at a density of 0.5-1.0×10^6 cells/well and treated with PRR agonists in combination with or without metabolites. To measure cytokine levels, culture supernatant was collected at specific timepoints. To check cytokine levels of the tumour interstitial fluid, samples were prepared following the protocol, as mentioned by Kim et al (Nat. Commun. 8, (2017)). Cellular IL-1 levels were determined by incubating HEK-Blue™ IL-1β cells ([…]) with the collected culture supernatant and measuring the SEAP levels in the culture medium using QUANTI-Blue™ solution ([…]). Multiplexed quantification of cytokines, chemokines, and growth factors was also conducted by Eve Technologies Corp. (Calgary, Alberta) using the Luminex™ 200 system (Luminex, Austin, TX, USA).

IRF pathway = assay type: cell-based, human

O=C(O)CCc1ccccc1O [Compound I-1, 3-(2-hydroxyphenyl)propanoic acid]
toxicity or weight loss [1]: without toxicity or weight loss | effect on tumours implanted in GSDMD-KO mice ([2]; male C57BL/6N-Gsdmdem4Fcw/J (KO) mice): had no effect | overall survival ([2]; male C57BL/6NJ (WT) mice): increased overall survival | tumour growth ([2]; male C57BL/6NJ (WT) mice): decreased tumour growth | NF-κB pathway activation combined with PRR agonists (NF-κB pathway; LPS or other NF-κB pathway inducers): potentiate | NF-κB pathway activation when treated with LPS (NF-κB pathway; LPS, 16 hours, vs vehicle): potentiates | overall survival, treatment initiated seven days after implantation (B16.F10 melanoma tumours; IMDM-CR mice, B16.F10, treatment started 7 days after implantation): still effective | overall survival, combination with anti-PD-L1 vs anti-PD-L1 alone (B16.F10 melanoma tumours; female IMDM-CR mice, B16.F10 tumours, 3,2-HPP i.p. plus anti-PD-L1): further improvement | overall survival / immune surveillance of B16.F10 melanoma (B16.F10 melanoma tumours; female IMDM-CR mice, i.p. treatment from day 1): increased the overall survival | overall survival, treatment initiated seven days after implantation (M3-9-M^OVA tumours; IMDM-CR mice, M3-9-M^OVA, treatment started 7 days after implantation): still effective | immune surveillance of M3-9-M^OVA tumours (overall survival) (M3-9-M^OVA tumours; male IMDM-CR mice, i.p. treatment from day 1 post-implantation): enhance the immune surveillance | expression of exhaustion markers PD1, TIM3, LAG3 on OVA-specific CD8 T cells (OVA-specific CD8 T cells): no significant changes | frequency of OVA-specific CD8 T cells in the tumour (OVA-specific CD8 T cells): increase the frequency | IL-1β release ([3]; M3-9-M^OVA tumours): notable increase | secretion of GSDMD regulated cytokines / cytokine milieu in TME ([3]; male JAX C57BL/6 mice, 14 days, treatment from day 1, listed as 3,2-HPP): impacted the secretion; also recorded: significantly shifts | IRF pathway activation combined with PRR agonists (IRF pathway): potentiate
